Data on 28 molecules can be found in US4857507A, “Angiotensinogen analogs” (Abbott Laboratories, priority 1987, dated 1989).

The target of the first assay is T1, human renal renin (Homo sapiens, UniProt P00797).
T1 construct: human renal renin, free from acid proteolytic activity; from tissue; host or cells: human kidney (from the word 'renal')
T1 sequence (P00797 67-406): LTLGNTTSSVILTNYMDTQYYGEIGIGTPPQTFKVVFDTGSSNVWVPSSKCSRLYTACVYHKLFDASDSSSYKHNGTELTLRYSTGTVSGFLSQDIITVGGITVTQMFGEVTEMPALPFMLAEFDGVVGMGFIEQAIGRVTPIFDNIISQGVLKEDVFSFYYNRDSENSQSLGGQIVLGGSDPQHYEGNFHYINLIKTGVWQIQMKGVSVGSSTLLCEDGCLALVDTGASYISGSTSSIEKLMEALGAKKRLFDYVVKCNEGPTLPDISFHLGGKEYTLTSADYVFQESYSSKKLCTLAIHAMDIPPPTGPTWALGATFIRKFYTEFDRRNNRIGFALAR
Kind of assay: inhibition of human renal renin in vitro, angiotensin I formed measured by radioimmunoassay. In kind it is biochemical. As to conditions: compound at 10^-5 M; human renin substrate (angiotensinogen), 37° C., pH 6.0. As for the experimental part: At the end of the incubation, the amount of angiotensin I formed is measured by radioimmunoassay and the molor concentration required to cause 50% inhibition, expressed as the IC50, is calculated.
As to `CC(C)CCC(=O)NC(CC(O)C(CC(C)C)NC(=O)[C@H](C)NC(=O)[C@H](Cc1ccccc1)NC(=O)OC(C)(C)C)c1ccccc1` (stereo partly drawn) [Example 42, Boc-Phe-Ala amide of 4-amino-3-hydroxy-6-methyl-1-(4-methylvaleryl)amino-1-phenylheptane], the “% inhibition at 10^-5 M” value is listed as 41%.

Still in this assay, the particulars now being: human renal renin with human renin substrate (angiotensinogen), 37° C., pH 6.0.
Take `CC(C)CCC(=O)NCC[C@H](O)[C@H](CC1CCCCC1)NC(=O)C(Cc1cscn1)NC(=O)C(Cc1ccccc1)NC(=O)OC(C)(C)C` (mixture of isomers) [Example 59, Boc-Phe-dl-4-thiazolylalanine Amide of (3S,4S)-1-(3-Methylbutylcarbonylamino)-3-hydroxy-4-amino-5-cyclohexylpentane]: the IC50 was found to be 10 nM.
`CC(C)CCC(=O)NCC[C@H](O)[C@H](CC1CCCCC1)NC(=O)C(Cc1ccncn1)NC(=O)[C@H](Cc1ccccc1)NC(=O)OC(C)(C)C` (mixture of isomers) [Example 62, Boc-Phe-dl-4-pyrimidinylalanine Amide of (3S,4S)-1-(3-Methylbutylcarbonylamino)-3-hydroxy-4-amino-5-cyclohexylpentane] had an IC50 of 20 nM.
Take `CC(C)C[C@H](NC(=O)C(C)NC(=O)C(Cc1ccccc1)NC(=O)OC(C)(C)C)[C@@H](O)CCSCCc1ccccc1` (stereo partly drawn) [Example 16, Boc-Phe-Ala amide of (3S,4S)-4-amino-3-hydroxy-6-methyl-1-phenethylmercaptoheptane]: the IC50 came out at 4000 nM. This IC50 lies about 200-fold higher than the previous one.
On to `CC(C)CCSCC[C@H](O)[C@H](CC(C)C)NC(=O)[C@H](C)NC(=O)[C@H](Cc1ccccc1)NC(=O)OC(C)(C)C` [Example 17, Boc-Phe-Ala amide of (3S,4S)-4-amino-3-hydroxy-1-isoamylmercapto-6-methylheptane], for which the IC50 is 5500 nM.
Same read-out and setting: as for `CC(C)C[C@H](NC(=O)[C@H](C)NC(=O)[C@H](Cc1ccccc1)NC(=O)OC(C)(C)C)[C@@H](O)CCS(=O)(=O)CCc1ccccc1` [Example 18, Boc-Phe-Ala amide of (3S,4S)-4-amino-3-hydroxy-6-methyl-1-phenethylsulfonylheptane], the figure is 2000 nM; as for `CC(C)CCS(=O)(=O)CC[C@H](O)[C@H](CC(C)C)NC(=O)[C@H](C)NC(=O)[C@H](Cc1ccccc1)NC(=O)OC(C)(C)C` [Example 19, Boc-Phe-Ala amide of (3S,4S)-4-amino-3-hydroxy-1-isoamylsulfonyl-6-methylheptane], 2500 nM.
`CC(C)C[C@H](NC(=O)C(C)NC(=O)C(Cc1ccccc1)NC(=O)OC(C)(C)C)[C@@H](O)CCOc1ccccc1` (stereo partly drawn) [Example 21, Boc-Phe-Ala amide of (3S,4S)-4-amino-3-hydroxy-6-methyl-1-phenoxyheptane] registered an IC50 of 2000 nM.
Same read-out and setting: the result for `CC(C)C[C@H](NC(=O)C(Cc1cnc[nH]1)NC(=O)C(Cc1ccccc1)NC(=O)OC(C)(C)C)[C@@H](O)CCS(=O)(=O)CCc1ccccc1` (stereo partly drawn) [Example 23, Boc-Phe-His amide of (3S,4S)-4-amino-3-hydroxy-6-methyl-1-phenethylsulfonylheptane] reads 80 nM.
On the same count and under the same terms, the result for `CC(C)CCC(=O)CC[C@H](O)[C@H](CC(C)C)NC(=O)[C@H](C)NC(=O)[C@H](Cc1ccccc1)NC(=O)OC(C)(C)C` [Example 30, Boc-Phe-Ala amide of (4S,5S)-4-amino-2,11-dimethyl-5-hydroxy-8-oxododecane] reads 2500 nM; that for `CC(C)CCC(=O)NCC[C@H](O)[C@H](CC1CCCCC1)NC(=O)C(C)NC(=O)C(Cc1ccccc1)NC(=O)OC(C)(C)C` (stereo partly drawn) [Example 34, Boc-Phe-Ala Amide of (3S,4S)-1-(3-Methylbutylcarbonylamino)-3-hydroxy-4-amino-5-cyclohexylpentane], 30 nM; that for `CC(C)CCC(=O)NCC[C@H](O)[C@H](CC1CCCCC1)NC(=O)[C@H](Cc1cnc[nH]1)NC(=O)[C@H](Cc1ccccc1)NC(=O)OC(C)(C)C` [Example 35, Boc-Phe-His Amide of (3S,4S)-1-(3-Methylbutylcarbonylamino)-3-hydroxy-4-amino-5-cyclohexylpentane], 15 nM.
On the same count and under the same terms, as for `CC(C)CCNC(=O)C(CC(O)C(CC(C)C)NC(=O)C(C)NC(=O)C(Cc1ccccc1)NC(=O)OC(C)(C)C)c1ccccc1` (stereo not drawn) [Example 46, Boc-Phe-Ala amide of 5-amino-4-hydroxy-77-methyl-2-phenyloctanoic acid isoamyl amide], the figure is 3000 nM; as for `CC(C)S(=O)(=O)NCC[C@H](O)[C@H](CC1CCCCC1)NC(=O)C(Cc1cnc[nH]1)NC(=O)C(Cc1ccccc1)NC(=O)OC(C)(C)C` (stereo partly drawn) [Example 50, Boc-Phe-His Amide of (3S,4S)-1-(2-propylsulfonylamino)-3-hydroxy-4-amino-5-cyclohexylpentane], 25 nM.
In the case of `CCCSCC(=O)NCC[C@H](O)[C@H](CC1CCCCC1)NC(=O)C(Cc1cnc[nH]1)NC(=O)C(Cc1ccccc1)NC(=O)OC(C)(C)C` (stereo partly drawn) [Example 67, Boc-Phe-His Amide of (3S,4S)-1-(2-Propylmercaptoacetylamino)-3-hydroxy-4-amino-5-cyclohexylpentane], half-maximal inhibition (IC50) required 25 nM.
Molecule `CCCS(=O)(=O)CC(=O)NCC[C@H](O)[C@H](CC1CCCCC1)NC(=O)[C@H](Cc1cnc[nH]1)NC(=O)[C@H](Cc1ccccc1)NC(=O)OC(C)(C)C` [Example 68, Boc-Phe-His Amide of (3S,4S)-1-(2-Propylsulfonylacetylamino)-3-hydroxy-4-amino-5-cyclohexylpentane] gave an IC50 of 20 nM.
Still for that read-out and setting: as for `CC(C)C[C@H](NC(=O)[C@H](Cc1ccccc1)NC(=O)OC(C)(C)C)C(=O)N[C@@H](CC1CCCCC1)[C@@H](O)C(F)(F)CN=[N+]=[N-]` [Example 78, Boc-Phe-Leu amide of (3R,4S)-3-hydroxy-4-amino-2,2-difluoro-1-azido-5-cyclohexylpentane], the figure is 30 nM; as for `CC(C)C[C@H](NC(=O)[C@H](Cc1ccccc1)NC(=O)OC(C)(C)C)C(=O)N[C@@H](CC1CCCCC1)[C@@H](O)C(F)(F)CSC(C)C` [Example 83(A), Boc-Phe-Leu amide of (3R,4S)-3-hydroxy-4-amino-2,2-difluoro-1-isopropylmercapto-5-cyclohexylpentane], 25 nM; as for `CC(C)CC(NC(=O)C(Cc1ccccc1)NC(=O)OC(C)(C)C)C(=O)N[C@@H](CC1CCCCC1)[C@@H](O)C(F)=CSC(C)C` (stereo partly drawn) [Example 83(B), Boc-Phe-Leu amide of (3R,4S,EZ)-3-hydroxy-4-amino-2-fluoro-1-isopropylmercapto-5-cyclohexyl-1-pentene], 50 nM.
On the same count and under the same terms, the result for `CC(C)CCC(=O)NCC(F)(F)[C@H](O)[C@H](CC1CCCCC1)NC(=O)C(CC(C)C)NC(=O)C(Cc1ccccc1)NC(=O)OC(C)(C)C` (stereo partly drawn) [Example 85, Boc-Phe-Leu amide of (3R,4S)-3-hydroxy-4-amino-2,2-difluoro-1-isopentylcarbonylamino-5-cyclohexylpentane] reads 20 nM; that for `CC(C)CC(NC(=O)C(Cc1ccccc1)NC(=O)OC(C)(C)C)C(=O)N[C@@H](CC1CCCCC1)[C@@H](O)C(F)(F)CS(=O)(=O)C(C)C` (stereo partly drawn) [Example 86, Boc-Phe-Leu amide of (3R,4S)-3-hydroxy-4-amino-2,2-difluoro-1-isopropylsulfonyl-5-cyclohexylpentane], 10 nM; that for `CC(C)CC(NC(=O)C(Cc1ccccc1)NC(=O)OC(C)(C)C)C(=O)N[C@@H](CC1CCCCC1)[C@@H](O)C(F)=CS(=O)(=O)C(C)C` (stereo partly drawn) [Example 87, Boc-Phe-Leu amide of (3R,4S,EZ)-3-hydroxy-4-amino-2-fluoro-1-isopropyl-sulfonyl-5-cyclohexyl-1- pentene], 4.5 nM.
The molecule `CC(C)C[C@H](NC(=O)[C@H](Cc1ccccc1)NC(=O)OC(C)(C)C)C(=O)N[C@@H](CC1CCCCC1)C(=O)C(F)(F)CN=[N+]=[N-]` [Example 88, Boc-Phe-Leu amide of (4S)-3-oxo-4-amino-2,2-difluoro-1-azido-5-cyclohexylpentane] gave an IC50 of 2.5 nM.
The molecule `CC(C)CC(NC(=O)C(Cc1ccccc1)NC(=O)OC(C)(C)C)C(=O)N[C@@H](CC1CCCCC1)C(=O)C(F)(F)CSC(C)C` (stereo partly drawn) [Example 93, Boc-Phe-Leu amide of (4S)-3-oxo-4-amino-2,2-difluoro-1-isopropylmercapto-5-cyclohexylpentane] registered a half-maximal inhibitory concentration (IC50) of 2.5 nM.
The same measure, in the same setting: the result for `CC(C)CCC(=O)NCC(F)(F)C(=O)[C@H](CC1CCCCC1)NC(=O)[C@H](CC(C)C)NC(=O)[C@H](Cc1ccccc1)NC(=O)OC(C)(C)C` [Example 94, Boc-Phe-Leu amide of (4S)-3-oxo-4-amino-2,2-difluoro-1-isopentylcarbonylamino-5-cyclohexylpentane] reads 2 nM; that for `CC(C)CC(NC(=O)C(Cc1ccccc1)NC(=O)OC(C)(C)C)C(=O)N[C@@H](CC1CCCCC1)C(=O)C(F)(F)CS(=O)(=O)C(C)C` (stereo partly drawn) [Example 95, Boc-Phe-Leu amide of (4S)-3-oxo-4-amino-2,2-difluoro-1-isopropylsulfonyl-5-cyclohexylpentane], 1 nM.
`CC(C)C[C@H](NC(=O)[C@H](Cc1ccccc1)NC(=O)OC(C)(C)C)C(=O)N[C@@H](CC1CCCCC1)C(=O)/C(F)=C/S(=O)(=O)C(C)C` [Example 96, Boc-Phe-Leu amide of (Z,4S)-3-oxo-4-amino-2-fluoro-1-isopropylsulfonyl-5-cyclohexyl-1-pentene]: the IC50 was found to be 20 nM.
Same read-out and setting: as for `CC(C)(C)OC(=O)NC(Cc1ccccc1)C(=O)NC(Cc1cnc[nH]1)C(=O)N[C@@H](CC1CCCCC1)[C@@H](O)CCN=[N+]=[N-]` (stereo partly drawn) [Example 125, Boc-Phe-His Amide of (3S,4S)-1-Azido-3-hydroxy-4-amino-5-cyclohexylpentane], the figure is 20 nM.
